Measurements reported in patent US9428512B2, “Compounds” (GlaxoSmithKline LLC, priority 2012, dated 2016).

Legend:
[1] = tested on: IFN-α induction in human whole blood; assay: Induction of Interferon-α using fresh human whole blood (WB); type: cell-based; settings: three donors, overnight incubation, cytokine release as % of 2 μM resiquimod control, read-out: mean pEC50 for IFN-α (converted)
Description: (§1) Assay for the Induction of Interferon-α and TNF-α Using Fresh Human Whole Blood (WB)
(§2) Compounds were prepared at 100× required concentration in DMSO in flat-bottom microtitre plates at a volume of 1.5 μL. Columns 1-10 contained a 1 in 4 serial dilution of the test compound. Included on each plate was a serial dilution of the TLR7/8 agonist resiquimod as a standard and Column 11 contained 1.5 μl of 200 μM resiquimod (giving a 2 μM final concentration, used to define the approximate maximal response to resiquimod). Each compound was assayed in duplicate for each donor.
(§3) Blood samples from three human donors were collected into sodium heparin (10 U/ml). 150 μl of whole Blood was dispensed into Col 1 to 11 of assay plates containing 1.5 μl of test compound or standard in DMSO. Plates were placed in an incubator overnight (37° C., 95% air, 5% CO2). Following the overnight incubation, plates were removed from the incubator & mixed on an orbital shaker for approximately 1 minute. 100 μl of 0.9% saline was added to each well and the plates mixed again on an orbital shaker. Plates were then centrifuged (2500 rpm, 10 mins), after which a sample of plasma was removed using a Biomek FX and assayed for both IFN-α and TNF-α using the MSD (Mesoscale Discovery) electrochemiluminescence assay platform. The IFN-α assay was carried out similarly to that described above. The TNF-α assay was carried out as per kit instructions (Cat No K111BHB).
(§4) Cytokine released was expressed as a percentage of the 2 μM resiquimod control (column 11). This percentage was plotted against compound concentration and the pEC50 for the response determined by non-linear least squares curve fitting. For the IFN-α responses, generally a 4 parameter logistic model was selected. For the TNF-α responses where a clear maximum response was obtained (i.e. a well defined plateau in the response was observed) then a 4 parameter model was generally used. If the upper asymptote of the curve wasn't well defined then the curve fitting was generally constrained to a maximal response of 100% (i.e. to the response to 2 μM resiquimod) or to the response of the highest concentration tested if this was greater than the resiquimod response. Some curves were bell shaped for one or both cytokines and the cytokine data on the down slope of the bell shaped response (i.e. concentrations above those giving the maximal response) were generally excluded from the fit, usually with the exception of the concentration immediately above the peak response. Curve fitting thus concentrated on the up slope of the dose response curve.

[2] = tested on: TNF-α induction in human whole blood; assay: Induction of TNF-α using fresh human whole blood (WB); type: cell-based; settings: three donors, overnight incubation, cytokine release as % of 2 μM resiquimod control, read-out: mean pEC50 for TNF-α (converted)
Description: as §1, §2, §3, §4

SMILES: CCCCc1nc(N)c2[nH]cc(CCCCCN3CCNCC3)c2n1 [Example 1, 2-Butyl-7-(5-(piperazin-1-yl)pentyl)-5H-pyrrolo[3,2-d]pyrimidin-4-amine]
- EC50 [1]: ≤ 1.58 µM
- EC50 [2]: ≥ 5.01 µM

SMILES: CCCCc1nc(N)c2[nH]cc(CCCCCN3CCN(C(C)C)CC3)c2n1 [Example 2, 2-Butyl-7-(5-(4-isopropylpiperazin-1-yl)pentyl)-5H-pyrrolo[3,2-d]pyrimidin-4-amine]
- EC50 [1]: ≤ 1.58 µM
- EC50 [2]: ≥ 5.01 µM

SMILES: CCCCc1nc(N)c2[nH]c(C)c(CCCCCN3CCN(C(C)C)CC3)c2n1 [Example 3, 2-Butyl-7-(5-(4-isopropylpiperazin-1-yl)pentyl)-6-methyl-5H-pyrrolo[3,2-d]pyrimidin-4-amine]
- EC50 [1]: ≤ 1.58 µM
- EC50 [2]: ≥ 5.01 µM

SMILES: CCCCc1nc(N)c2[nH]c(C)c(CCCCCN3CCN(CC)CC3)c2n1 [Example 4, 2-Butyl-7-(5-(4-ethylpiperazin-1-yl)pentyl)-6-methyl-5H-pyrrolo[3,2-d]pyrimidin-4-amine]
- EC50 [1]: ≤ 1.58 µM
- EC50 [2]: ≥ 5.01 µM

SMILES: CCCCc1nc(N)c2[nH]cc(CCCN3CCNCC3)c2n1 [Example 5, 2-Butyl-7-(3-(piperazin-1-yl)propyl)-5H-pyrrolo[3,2-d]pyrimidin-4-amine]
- EC50 [1]: ≤ 1.58 µM
- EC50 [2]: ≥ 5.01 µM

SMILES: CCCCc1nc(N)c2[nH]cc(CCCN3CCN(CC)CC3)c2n1 [Example 6, 2-Butyl-7-(3-(4-ethylpiperazin-1-yl)propyl)-5H-pyrrolo[3,2-d]pyrimidin-4-amine]
- EC50 [1]: ≤ 1.58 µM
- EC50 [2]: ≥ 5.01 µM

SMILES: CCCCc1nc(N)c2[nH]cc(CCCCN3CCN(C(C)C)CC3)c2n1 [Example 7]
- EC50 [1]: ≤ 1.58 µM
- EC50 [2]: ≥ 5.01 µM
